Results as given in patent publication USRE48461E1, “Modulation of androgen receptor expression” (Ionis Pharmaceuticals, Inc., priority 2012, dated 2021).

Columns and labels:
Assay type in all cases: cell-based, human
[1] = system: VCaP cells; assay: VCaP apoptosis (Caspase-Glo 3/7); details: complete medium, 72 hours; for Apoptosis (% untreated control): VCaP cells
Protocol: After a treatment period of 72 hours in complete medium, apoptosis of the cancer cells was measured with Caspase-Glo 3/7 assay (Promega). Results are presented in Tables 117 and 118 as percent apoptosis of the cells, relative to non-treated cells.

[2] = system: LMR20 cells; assay: Proliferation of MDV3100-resistant LMR20 cells (MTT; with R1881 or DHT); details: 5 days
Summary of the method: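 Cells were held in phenol red-free medium with charcoal-stripped FBS and given antisense oligonucleotides plus 1 nM R1881 or 10 nM DHT from day 1. Proliferation was read by MTT after 5 days of treatment and reported as percent inhibition against non-treated cells.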

[3] = system: AR V7 variant mRNA; assay: AR V7 variant RNA in VCaP cells; details: RNAiMax, 48 hrs
Protocol: Cells were plated at 10,000 cells per well. […] ISIS 549148 was included as a negative control. After an incubation period of 48 hrs, RNA levels of full length AR, the V7 variant, PSA and TMPRSS2 were measured.
A separate set of cells was treated with MDV-3100 at 0.04 μM, 0.2 μM, 1.0 μM, or 5.0 μM. After an incubation period of 48 hrs, RNA levels of full length AR, the V7 variant, PSA and TMPRSS2 were measured. The data is presented in Tables 108 expressed as percent expression of gene levels compared to the untreated control.
Cells were plated at 15,000 cells per well and cultured in CSS media for 16 hours. […] ISIS 549148 was included as a negative control. After 4 hrs, 1 nM DHT was added. […] After an incubation period of 48 hrs, RNA levels of AR, PSA and TMPRSS2 were measured. […]

[4] = system: prostate-specific antigen (PSA) mRNA; assay: PSA mRNA levels in LMR20 cells; details: with or without DHT/R1881
Protocol: LMR20 cells were plated at 1,500 cells per well in phenol red-free medium with CSS. […] Results are presented in Tables 43-45 as mRNA levels expressed as a percentage of the baseline values. mRNA levels may be lowered or increased after treatment.

[5] = system: TMPRSS2 mRNA; assay: TMPRSS2 expression in VCaP cells; details: RNAiMax, 48 hrs
Protocol: Cells were plated at 10,000 cells per well. […] After an incubation period of 48 hrs, RNA levels of full length AR, the V7 variant, PSA and TMPRSS2 were measured.
After an incubation period of 48 hrs, RNA levels of full length AR, the V7 variant, PSA and TMPRSS2 were measured. The data is presented in Tables 108 expressed as percent expression of gene levels compared to the untreated control.
Cells were plated at 15,000 cells per well and cultured in CSS media for 16 hours. […] After 4 hrs, 1 nM DHT was added. […] After an incubation period of 48 hrs, RNA levels of AR, PSA and TMPRSS2 were measured.

[6] = system: LNCaP cells; assay: LNCaP cell proliferation (complete or CSS+DHT medium); details: 5 days; for Proliferation (% untreated control) in LNCaP cells cultured in CSS + DHT medium: CSS + 1 nM DHT medium
Protocol: After a treatment period of 5 days in complete medium or CSS+1 nM DHT medium, the proliferative capacity of the cancer cells was measured with using CellTiter 96® AQueous One Solution or CellTiter-Glo® solution Cell Proliferation kit (Promega), following the manufacturer's instructions. […] Treatment with ISIS oligonucleotides in CSS+DHT medium reduced the proliferative capacity to a greater extent than treatment with MVD-3100. The proliferative capacity of cells cultured in CSS medium without DHT is 17% of untreated control levels.

[7] = system: PSA mRNA; assay: PSA expression in LNCaP cells (complete, CSS+DHT medium); details: for Percent inhibition of PSA expression in LNCaP cells cultured in CSS + DHT medium: CSS + DHT (1 nM) medium, 48 hrs; for Percent inhibition of PSA expression in LNCaP cells cultured in complete medium: 48 hours
Protocol: Cells were plated at 1,000 cells per well. […] ISIS 549148 was included as a negative control. […] After an incubation period of 48 hours, RNA levels of AR, PSA and TMPRSS2 were measured.
Cells were plated at 2,000 cells per well and cultured in phenol red-free RPMI supplemented with 5% charcoal stripped serum (Gibco) media for 16 hours. […] ISIS 549148 was included as a negative control. […] After an incubation period of 4 hrs, DHT was added to the medium to a final concentration of 1 nM as indicated. RNAs were collected 48 hrs later and levels of AR, PSA and TMPRSS2 were measured. In the absence of DHT, AR expression in LNCaP cells was 95%, PSA expression was 7% and TMPRSS2 expression was 24% compared to the untreated control.

TGATTTAATGGTTGCA [ISIS 569236] (cEt/MOE gapmer chemistry, further chemistry not given here) [targets intron 1]
Apoptosis (% untreated control) ([1]; 1.34 nM): 176 % untreated control | Apoptosis (% untreated control) ([1]; 4.0 nM): 293 % untreated control | Apoptosis (% untreated control) ([1]; 13.4 nM): 402 % untreated control | Apoptosis (% untreated control) ([1]; 40 nM): 581 % untreated control | apoptosis of VCaP cells [1]: increased apoptosis of the cells in a dose dependent compared to the control | Percent inhibition of LMR20 cell proliferation ([2]; CSS + DHT, ASO 0.04 μM): 0% | Percent inhibition of LMR20 cell proliferation ([2]; CSS + DHT, ASO 0.20 μM): 10% | Percent inhibition of LMR20 cell proliferation ([2]; CSS + DHT, ASO 1.0 μM): 32% | Percent inhibition of LMR20 cell proliferation ([2]; CSS + DHT, ASO 5.0 μM): 57% | Percent inhibition of LMR20 cell proliferation ([2]; CSS + R1881, ASO 0.04 μM): 0% | Percent inhibition of LMR20 cell proliferation ([2]; CSS + R1881, ASO 0.20 μM): 2% | Percent inhibition of LMR20 cell proliferation ([2]; CSS + R1881, ASO 1.0 μM): 34% | Percent inhibition of LMR20 cell proliferation ([2]; CSS + R1881, ASO 5.0 μM): 61% | Percent inhibition of LMR20 cell proliferation ([2]; CSS, ASO 0.04 μM): 0% | Percent inhibition of LMR20 cell proliferation ([2]; CSS, ASO 0.20 μM): 10% | Percent inhibition of LMR20 cell proliferation ([2]; CSS, ASO 1.0 μM): 0% | Percent inhibition of LMR20 cell proliferation ([2]; CSS, ASO 5.0 μM): 12% | LMR20 cell proliferation ([2]; in the presence of R1881 or DHT, 0.04-5.0 μM): significantly inhibited MDV3100-resistant prostate cancer cell proliferation in a dose dependent manner more extensively than ISIS 554221 | Percent inhibition of AR V7 variant ([3]; CSS + DHT medium, 1.34 nM): 37% | Percent inhibition of AR V7 variant ([3]; CSS + DHT medium, 4.0 nM): 33% | Percent inhibition of AR V7 variant ([3]; CSS + DHT medium, 13.4 nM): 48% | Percent inhibition of AR V7 variant ([3]; CSS + DHT medium, 40 nM): 39% | Percent inhibition of AR V7 variant ([3]; complete medium, 1.34 nM): 0% | Percent inhibition of AR V7 variant ([3]; complete medium, 4.0 nM): 40% | Percent inhibition of AR V7 variant ([3]; complete medium, 13.4 nM): 53% | Percent inhibition of AR V7 variant ([3]; complete medium, 40 nM): 80% | PSA mRNA levels in LMR20 cells [4]: reduced PSA levels and TMPRSS2 more extensively than the LNA gapmer ISIS 554221 or MDV3100 | Percent inhibition of TMPRSS2 expression ([5]; CSS + DHT medium, 1.34 nM): 6% | Percent inhibition of TMPRSS2 expression ([5]; CSS + DHT medium, 4.0 nM): 19% | Percent inhibition of TMPRSS2 expression ([5]; CSS + DHT medium, 13.4 nM): 40% | Percent inhibition of TMPRSS2 expression ([5]; CSS + DHT medium, 40 nM): 54% | Percent inhibition of TMPRSS2 expression ([5]; complete medium, 1.34 nM): 0% | Percent inhibition of TMPRSS2 expression ([5]; complete medium, 4.0 nM): 0% | Percent inhibition of TMPRSS2 expression ([5]; complete medium, 13.4 nM): 0% | Percent inhibition of TMPRSS2 expression ([5]; complete medium, 40 nM): 36% | Proliferation (% untreated control) in LNCaP cells cultured in CSS + DHT medium ([6]; 0.04 μM): 95 % untreated control | Proliferation (% untreated control) in LNCaP cells cultured in CSS + DHT medium ([6]; 0.2 μM): 99 % untreated control | Proliferation (% untreated control) in LNCaP cells cultured in CSS + DHT medium ([6]; 1 μM): 54 % untreated control | Proliferation (% untreated control) in LNCaP cells cultured in CSS + DHT medium ([6]; 5.0 μM): 17 % untreated control | proliferation of LNCaP cells ([6]; complete medium or CSS+1 nM DHT): reduced proliferation of the cells in a dose dependent compared to the control | Proliferation (% untreated control) in LNCaP cells cultured in complete medium ([6]; 0.04 μM): 100 % untreated control | Proliferation (% untreated control) in LNCaP cells cultured in complete medium ([6]; 0.2 μM): 85 % untreated control | Proliferation (% untreated control) in LNCaP cells cultured in complete medium ([6]; 1 μM): 68 % untreated control | Proliferation (% untreated control) in LNCaP cells cultured in complete medium ([6]; 5.0 μM): 54 % untreated control | Percent inhibition of PSA expression in LNCaP cells cultured in CSS + DHT medium ([7]; 0.04 μM): 4% | Percent inhibition of PSA expression in LNCaP cells cultured in CSS + DHT medium ([7]; 0.2 μM): 11% | Percent inhibition of PSA expression in LNCaP cells cultured in CSS + DHT medium ([7]; 1 μM): 45% | Percent inhibition of PSA expression in LNCaP cells cultured in CSS + DHT medium ([7]; 5.0 μM): 59% | Percent inhibition of PSA expression in LNCaP cells cultured in complete medium ([7]; 0.04 μM): 0% | Percent inhibition of PSA expression in LNCaP cells cultured in complete medium ([7]; 0.2 μM): 19% | Percent inhibition of PSA expression in LNCaP cells cultured in complete medium ([7]; 1 μM): 63% | Percent inhibition of PSA expression in LNCaP cells cultured in complete medium ([7]; 5.0 μM): 81%
